For one data set, the system named is DIO mice. Briefly: IPGTT in DIO mice. The following applies: 100 mg/kg group, IP; group terminated. The format is in vivo, mouse. From the text: (§1) Six-week-old male C57BL/6J mice were purchased from CLEA (Tokyo, Japan). Fourteen-week-old and fifteen-week-old male DIO mice were purchase from Charles River Japan (Yokohama, Japan). They were used after at least one week acclimation period. C57BL/6J mice were allowed free access to a normal diet (CRF-1, Oriental Yeast, Tokyo, Japan). DIO mice were allowed free access to a high-fat diet with 60 kcal% fat (D12492, Research Diets, New Brunswick, NJ). They were kept under standard 12-h light/dark cycle. Animal experiments were approved by the Institutional Animal Care and Use Committee of Mitsubishi Tanabe Pharma Corporation.
Fifteen-week-old and twenty one-week-old DIO mice were used. The mice were fasted for 3 h and were randomly grouped based on the body weight. Five ml/kg of a solution of vehicle (10% DMF/18% Cremophore) or compounds were administered IP. Thirty min later, 1.0 g/10 ml/kg of glucose solution was administered IP. Blood samples were obtained from the tail vein at -30, 0, 15, 30, 60, and 120 min after glucose challenge. Plasma glucose and insulin were measured.
Statistical analysis was performed using SAS9.1.3 with student’s t-test or Dunnett’s test. All data were expressed as mean ± standard error of mean (SEM). P values of <0.05 were considered to be statistically significant.

A further data set has as its system INS-1E cells. Nature of the data set: Glucose stimulated insulin secretion (GSIS) in INS-1E cells. The format is cell-based, rat. Conditions: for effect on GSIS: 1, 3 and 10 μM compound, 11.1 mM glucose; for unbound concentration yielding significant increases in GSIS (highest unbound concentration): free fraction calculated for 0.1% BSA. On the procedure:
INS-1E cells obtained from Dr. Wollheim (Univ. Geneva, Switzerland), were grown in Roswell Park Memorial Institute medium (RPMI) 1640 (Life technologies) supplemented with 5% of fetal bovine serum (Thermo Fischer Scientific, Inc. Waltham, MA). At 4 or 5 days before the assay, cells were plated in 24-well plates at 2 × 10^5 cells /well. At the day of the assay, cells were washed twice by Krebs-Ringer bicarbonate (KRB) buffer containing 0.1% BSA (pH7.4) and pre-incubated at 37°C for 30 min. The cells were washed twice again, and the buffer was replaced by KRB buffer containing 0, 1, 3 and 10 μM of compounds and 11.1 mM of glucose. In order to examine whether Zn^2+ has an enhancing effect on the activity of each compound, 20 μM of Zn^2+ was added in the incubation buffer as necessary. After cells were stimulated at 37°C for 1 h, the reaction was terminated by placing on ice. The buffer was collected from each well and precipitated (1000 rpm for 2 min at 25°C) in order to be separated from the cells. For each sample, concentration of insulin was measured using HTRF insulin kit (Cisbio).
The free fraction in the INS-1E assay, containing 0.1% w/w BSA, was calculated by using the equilibrium conditions of a single binding site model as in Eq 3.
The free fraction in mouse plasma corresponds to 1—CP/Ptot.

The next data set has as its system C57BL/6J mice. Briefly: Intraperitoneal glucose tolerance test (IPGTT) in C57BL/6J mice. The data set is classed as in vivo, mouse. The following applies: 30 and 100 mg/kg IP, 30 min before 1.5 g/kg glucose IP; fasted lean mice.
Source text: as §1
Seven-week-old and eight-week-old C57BL/6J mice were used. Mice were fasted overnight and were randomly grouped. Five ml/kg of a solution of vehicle (10% dimethylformamide (DMF)/18% Cremophore) or compounds were intraperitoneally (IP) administered. Thirty min later, 1.5 g/20 ml/kg of glucose solution was IP administered. […] Plasma glucose was measured using Glucose CII Test Wako Kit (Wako Pure Chemical Industries, Osaka, Japan). Plasma insulin was measured using Ultra Sensitive Mouse Insulin ELISA Kit (Morinaga, Yokohama, Japan).
Statistical analysis was performed using SAS9.1.3 with student’s t-test or Dunnett’s test. All data were expressed as mean ± standard error of mean (SEM). […]

For `N#Cc1ccc(OCCn2ccnc2)c(OCCn2ccnc2)c1` [AZ1395, 3,4-bis-(2-imidazol-1-ylethoxy)-benzonitrile], in the data set on DIO mice, the adverse findings entry is “severe hyperglycemia and associated morbidity/mortality in some animals”.
For the compound `Cc1nc2c(C(=O)O)cnn2c(O)c1Cc1ccc(Cl)cc1` [AZ4237, 6-[(4-chlorophenyl)methyl]-7-hydroxy-5-methyl-pyrazolo[1,5-a]pyrimidine-3-carboxylic acid], the entries for the “effect on GSIS” value with INS-1E cells (absence of Zn^2+) and in the data set on INS-1E cells (presence of 20 μM Zn^2+) were “no effects” and “dose dependent GSIS increases”, respectively. The “unbound concentration yielding significant increases in GSIS (highest unbound concentration)” value with INS-1E cells was 7.2 µM. Also, the insulinotropic effect entry with C57BL/6J mice is reported as “did not elicit insulinotropic effects in vivo”.
The matching figures for `Cc1nc(-c2nc3c(c(=O)[nH]2)CN(C(=O)c2cccc(Cl)c2F)CC3)cs1` [AZ7914, 6-(3-chloro-2-fluoro-benzoyl)-2-(2-methylthiazol-4-yl)-3,5,7,8-tetrahydropyrido-[4,3-d]pyrimidin-4-one]: “no effects”, “dose dependent GSIS increases”, 8.4 µM and “did not elicit insulinotropic effects in vivo”.

Source of the values: PMC4697807, “Novel Zn^2+ Modulated GPR39 Receptor Agonists Do Not Drive Acute Insulin Secretion in Rodents” (PLoS ONE, 2015).
